Reference: US20090274739A1, “METHODS AND COMPOSITIONS FOR TREATING NEOINTIMAL HYPERPLASIA” (THE TRUSTEES OF COLUMBIA UNIVERSITY IN THE CITY OF NEW YORK, priority 2006, published 2009)
“Also recorded” adds a separate entry of the source.

Assays:
[1] = tested on: primary murine aortic vascular smooth muscle cells (VSMC); assay: VSMC proliferation assay (Coulter counter / MTS-based); assay type: cell-based, mouse
Method: The methods used in the above experiments were as follows: Cell Culture and VSMC Proliferation Assays. Primary VSMC were isolated from aortic explants of wildtype, ob/ob, or db/db mice in the method of Roque et al. 30. VSMC were routinely cultured in Dulbecco's Modified Eagle's Medium (DMEM) containing either 4500 or 1250 mg/L glucose supplemented with 20% FBS at 37° C. in a 5% CO2 incubator. […] Cells were plated at 200,000 cells/ well of a 6 well dish and subsequently serum starved for 72 hr in DMEM media supplemented with 0.1 % FBS. Leptin dissolved in PBS was added directly to serum-free media at concentrations of 1, 10, or 100 ng/ml with […] LY294002 or U0126, and cells were grown for another 72 hr before harvesting. VSMC proliferation was measured by counting samples using a Coulter counter or using the Cell Titre 96 Aqueous One Solution Cell Proliferation Assay kit (Promega). Cell viability was assessed by Trypan Blue staining.
Proliferation of VSMCs: VSMC proliferation was measured by counting triplicate samples using a Coulter counter or using the CellTitier 96 Aqueous One Solution Cell Proliferation Assay (Promega, Madison, Wis.) kit per manufacturer's instructions. Cell viability was assessed via staining with Trypan Blue.
Murine VSMCs (2×10^4 cells/well) were incubated in a 6-well tissue culture plate for 72 hours in DMEM containing 0.1% FBS with or without insulin (10 or 100 nmol/L) and with 0, 1, 10, or 100 nmol/L rapamycin. Triplicate samples were counted using a Coulter counter and were normalized as percentage of the control group. Cell viability was checked via Trypan blue staining.
Murine VSMCs, seeded 2×10^4 cells/well in a 6-well plate, were starved for 72 hrs in DMEM with 0.1% FBS. Rapamycin, leptin, or insulin in different concentrations indicated in the figure were incubated with VSMCs in DMEM with 0.1% of FBS for 72 hrs. Triplicate samples were counted via a Coulter counter. Cell viability was checked via Trypan blue staining. […] In panel C, VSMCs were exposed to U0126, a specific MEK1/2 inhibitor, or LY294002, a specific PI3K inhibitor.
Primary VSMC were isolated from aortic explants of WT, ob/ob, or db/db mice (46). VSMC proliferation was determined using the Cell Titre Aqueous One Solution Proliferation Assay (Promega, Madison, Wis.). Migration to PDGF-BB was assessed in a modified Boyden chamber assay (47).

[2] = tested on: MAPK (p44/p42, ERK1/2) phosphorylation; assay: Immunoblot of MAPK (ERK1/2, p44/p42) phosphorylation in VSMC; assay type: cell-based, mouse
Method: Western blot analysis: The cells were plated in a 100-mm culture dish in DMEM supplemented with 20% FBS for 24 h at 37° C., followed by serum starvation for 48 h. Cells were then treated with different reagents for 30 min. Cells were subsequently lysed on ice for 30 min in RIPA buffer [150 mM NaCl, 100 mM Tris (pH 8.0), 1% Triton X-100, 1% deoxycholic acid, 0.1% SDS, 5 mM EDTA, and 10 mM NaF] supplemented with 1 mM sodium vanadate, 2 mM leupeptin, 2 mM aprotinin, 1 mM phenylmethylsulfonyl fluoride (PMSF), 1 mM DTT, and 2 mM pepstatin A. After centrifugation at 14,000 rpm for 30 min, the supernatant was harvested as the total cellular protein extract, and stored at −70° C. The protein concentration was determined using Bio-Rad protein assay reagent (Richmond, Calif.). The total cellular protein extracts were separated by SDS-polyacrylamide gel electrophoresis (SDS-PAGE) and transferred to nitrocellulose membrane in 20 mM Tris-HCl (pH 8.0) containing 150 mM glycine and 20% (v/v) methanol.
Membranes were blocked with 5% nonfat dried milk in PBS containing 0.05% Tween 20 and incubated with antibodies against phospho-(Thr^202/Tyr^204) p42/p44^MAPK and p42/p44^MAPK, phospho-Akt([…]) and anti-Akt, p70^S6K, 4EBP-1. Blots were washed three times in PBS buffer, followed by incubation with the appropriate HRP-linked IgG. The specific proteins in the blots were visualized using an enhanced chemiluminescence reagent (NEN, Boston, Mass.).
VSMC were plated on 100-mm dishes, serum starved for 72 h in DMEM containing 0.1% FBS, and stimulated with 0.6 or 6 nM (10 or 100 ng/ml) leptin. Extracts were prepared by brief sonication in HKM buffer [40 mM HEPES-KOH (pH 7.6), 7.5 mM MgCl2, 0.5 mM DTT] or, in the case of Akt phosphorylation studies, by lysing cells on ice for 30 min in RIPA buffer. 70 μg of protein per sample were subjected to immunoblotting by standards protocols. Imaging and densitometry were performed on an Odyssey infrared system (Li-Cor, Lincoln, Neb.).

N#CC(=C(/N)Sc1ccccc1N)/C(C#N)=C(\N)Sc1ccccc1N [U0126]
VSMC proliferation induced by leptin and insulin [1]: weak inhibition; also recorded: not inhibited | effect on leptin-induced VSMC proliferation [1]: did not significantly alter | effect on leptin-induced proliferation of murine VSMC [1]: did not significantly alter | leptin-stimulated phosphorylation of MAPK ([2]; Example 1, data not shown): prevented | leptin-stimulated phosphorylation of MAPK ([2]; Example 5, U0126 10 μM): prevented
